{"source": "patent US6143769A", "about": "“Phenylacetic acid benzylamides” (Karl Thomae GmbH, priority 1983, dated 2000)", "key": {"[1]": {"experiment": "Study 1: plasma concentration, non-stereoselective HPLC", "assay_type": "in vivo, human"}, "[2]": {"experiment": "Study 3: plasma concentration of active substance, single test subject", "assay_type": "in vivo, human", "conditions": "for Cmax: read-out: Maximum concentration; for Tmax: read-out: Time of peak concentration; for concentration at 1.5 h: 1.50 h; for concentration at 2.5 h: 2.50 h; for concentration at 3.5 h: 3.50 h"}, "[3]": {"experiment": "clinical", "conditions": "human, plasma, 1 mg", "experimental": "More specifically, the studies which follow were carried out on healthy male volunteers in whom the levels of glucose and active substance in the course of time were determined:\nIn the interests of more precise clarification, study 5 was carried out (randomised, open, crossover). […] 2 hours after administration a standard breakfast (B) was eaten, 5 hours after administration a standard lunch (L) was eaten and 10 hours after administration a standard dinner (D) was eaten. Blood samples were taken at different times. The glucose concentrations were measured in the plasma as in study 1. […] The plasma concentrations of AG-EE 624 ZW were calculated as the difference between the two concentrations found:"}}, "note": "Like-named read-outs stand apart in the source and are kept apart here.", "data": [{"smiles": "CCOc1cc(CC(=O)NC(CC(C)C)c2ccccc2N2CCCCC2)ccc1C(=O)O", "note": "(racemic) [AG-EE 388 ZW, 2-ethoxy-4-[N-[1-(2-piperidino-phenyl)-3-methyl-1-butyl]aminocarbonylmethyl]-benzoic acid]", "values": [{"measurement": "Concentration (mean)", "setting": "[1]; 2 mg capsule, 0 h", "value": 0.0, "unit": "ng/mL"}, {"measurement": "Concentration (mean)", "setting": "[1]; 2 mg capsule, 10.00 h", "value": 0.0, "unit": "ng/mL"}, {"measurement": "Time at which level reaches the detection limit", "setting": "[1]; 2 mg capsule, limit 5 ng/ml", "value": 5, "unit": "h"}, {"measurement": "concentration at 0.5 h", "setting": "[1]; human, plasma, po, 2 mg, 2 mg capsule, 0.50 h", "value": 55.8, "unit": "ng/mL"}, {"measurement": "concentration at 0.75 h", "setting": "[1]; human, plasma, po, 2 mg, 2 mg capsule, 0.75 h", "value": 82.9, "unit": "ng/mL"}, {"measurement": "concentration at 1 h", "setting": "[1]; human, plasma, po, 2 mg, 2 mg capsule, 1.00 h", "value": 82.8, "unit": "ng/mL"}, {"measurement": "concentration at 1.5 h", "setting": "[1]; human, plasma, po, 2 mg, 2 mg capsule, 1.50 h", "value": 64.7, "unit": "ng/mL"}, {"measurement": "concentration at 2 h", "setting": "[1]; human, plasma, po, 2 mg, 2 mg capsule, 2.00 h", "value": 58.3, "unit": "ng/mL"}, {"measurement": "concentration at 3 h", "setting": "[1]; human, plasma, po, 2 mg, 2 mg capsule, 3.00 h", "value": 29.4, "unit": "ng/mL"}, {"measurement": "concentration at 4 h", "setting": "[1]; human, plasma, po, 2 mg, 2 mg capsule, 4.00 h", "value": 16.3, "unit": "ng/mL"}, {"measurement": "concentration at 5 h", "setting": "[1]; human, plasma, po, 2 mg, 2 mg capsule, 5.00 h", "value": 9, "unit": "ng/mL"}, {"measurement": "concentration at 6 h", "setting": "[1]; human, plasma, po, 2 mg, 2 mg capsule, 6.00 h", "value": 4.2, "unit": "ng/mL"}, {"measurement": "concentration at 8 h", "setting": "[1]; human, plasma, po, 2 mg, 2 mg capsule, 8.00 h", "value": 1.2, "unit": "ng/mL"}, {"measurement": "Cmax", "setting": "[1]; human, plasma, po, 2 mg capsule p.o., read-out: Maximum concentration", "value": "83 ± 18", "unit": "ng/mL"}, {"measurement": "Active substance concentration", "setting": "[2]; 2 mg, 5.00 h", "value": 0, "unit": "ng/mL"}, {"measurement": "Active substance concentration", "setting": "[2]; 4 mg capsule, 0 h", "value": 0, "unit": "ng/mL"}, {"measurement": "Active substance concentration", "setting": "[2]; 4 mg, 0.50 h", "value": 0, "unit": "ng/mL"}, {"measurement": "Cmax", "setting": "[2]; human, plasma, po, 2 mg, 2 mg capsule", "value": 82, "unit": "ng/mL"}, {"measurement": "Tmax", "setting": "[2]; human, plasma, po, 2 mg", "value": 1.75, "unit": "h"}, {"measurement": "Cmax", "setting": "[2]; human, plasma, po, 4 mg, 4 mg capsule", "value": 150, "unit": "ng/mL"}, {"measurement": "Tmax", "setting": "[2]; human, plasma, po, 4 mg", "value": 1.5, "unit": "h"}, {"measurement": "concentration at 0.5 h", "setting": "[2]; human, plasma, po, 2 mg capsule, 0.50 h", "value": 11, "unit": "ng/mL"}, {"measurement": "concentration at 0.75 h", "setting": "[2]; human, plasma, po, 2 mg", "value": 16, "unit": "ng/mL"}, {"measurement": "concentration at 1 h", "setting": "[2]; human, plasma, po, 2 mg", "value": 40, "unit": "ng/mL"}, {"measurement": "concentration at 1.25 h", "setting": "[2]; human, plasma, po, 2 mg", "value": 44, "unit": "ng/mL"}, {"measurement": "concentration at 1.5 h", "setting": "[2]; human, plasma, po, 2 mg", "value": 68, "unit": "ng/mL"}, {"measurement": "concentration at 1.75 h", "setting": "[2]; human, plasma, po, 2 mg", "value": 82, "unit": "ng/mL"}, {"measurement": "concentration at 2 h", "setting": "[2]; human, plasma, po, 2 mg", "value": 82, "unit": "ng/mL"}, {"measurement": "concentration at 2.5 h", "setting": "[2]; human, plasma, po, 2 mg", "value": 80, "unit": "ng/mL"}, {"measurement": "concentration at 3 h", "setting": "[2]; human, plasma, po, 2 mg", "value": 72, "unit": "ng/mL"}, {"measurement": "concentration at 3.5 h", "setting": "[2]; human, plasma, po, 2 mg", "value": 59, "unit": "ng/mL"}, {"measurement": "concentration at 4 h", "setting": "[2]; human, plasma, po, 2 mg", "value": 32, "unit": "ng/mL"}, {"measurement": "concentration at 0.75 h", "setting": "[2]; human, plasma, po, 4 mg", "value": 10, "unit": "ng/mL"}, {"measurement": "concentration at 1 h", "setting": "[2]; human, plasma, po, 4 mg", "value": 72, "unit": "ng/mL"}, {"measurement": "concentration at 1.25 h", "setting": "[2]; human, plasma, po, 4 mg", "value": 130, "unit": "ng/mL"}, {"measurement": "concentration at 1.5 h", "setting": "[2]; human, plasma, po, 4 mg", "value": 150, "unit": "ng/mL"}, {"measurement": "concentration at 1.75 h", "setting": "[2]; human, plasma, po, 4 mg", "value": 148, "unit": "ng/mL"}, {"measurement": "concentration at 2 h", "setting": "[2]; human, plasma, po, 4 mg", "value": 141, "unit": "ng/mL"}, {"measurement": "concentration at 2.5 h", "setting": "[2]; human, plasma, po, 4 mg", "value": 119, "unit": "ng/mL"}, {"measurement": "concentration at 3 h", "setting": "[2]; human, plasma, po, 4 mg", "value": 109, "unit": "ng/mL"}, {"measurement": "concentration at 3.5 h", "setting": "[2]; human, plasma, po, 4 mg", "value": 84, "unit": "ng/mL"}, {"measurement": "concentration at 4 h", "setting": "[2]; human, plasma, po, 4 mg", "value": 71, "unit": "ng/mL"}, {"measurement": "concentration at 5 h", "setting": "[2]; human, plasma, po, 4 mg, 5.00 h", "value": 64, "unit": "ng/mL"}, {"measurement": "concentration at 6 h", "setting": "[2]; human, plasma, po, 4 mg, 6.00 h", "value": 49, "unit": "ng/mL"}, {"measurement": "concentration at 7 h", "setting": "[2]; human, plasma, po, 4 mg, 7.00 h", "value": 21, "unit": "ng/mL"}, {"measurement": "concentration at 8 h", "setting": "[2]; human, plasma, po, 4 mg, 8.00 h", "value": 18, "unit": "ng/mL"}, {"measurement": "concentration at 0.08 h", "setting": "[3]; iv", "value": 33.3, "unit": "ng/mL"}, {"measurement": "concentration at 0.17 h", "setting": "[3]; iv", "value": 74.8, "unit": "ng/mL"}, {"measurement": "concentration at 0.25 h", "setting": "[3]; iv", "value": 104, "unit": "ng/mL"}, {"measurement": "concentration at 0.28 h", "setting": "[3]; iv", "value": 102, "unit": "ng/mL"}, {"measurement": "concentration at 0.33 h", "setting": "[3]; iv", "value": 85.6, "unit": "ng/mL"}, {"measurement": "concentration at 0.42 h", "setting": "[3]; iv", "value": 69.6, "unit": "ng/mL"}, {"measurement": "concentration at 0.5 h", "setting": "[3]; iv", "value": 60.1, "unit": "ng/mL"}, {"measurement": "concentration at 0.75 h", "setting": "[3]; iv", "value": 44.2, "unit": "ng/mL"}, {"measurement": "concentration at 1 h", "setting": "[3]; iv", "value": 35.8, "unit": "ng/mL"}, {"measurement": "concentration at 1.25 h", "setting": "[3]; iv", "value": 31.4, "unit": "ng/mL"}, {"measurement": "concentration at 1.5 h", "setting": "[3]; iv", "value": 27, "unit": "ng/mL"}, {"measurement": "concentration at 2 h", "setting": "[3]; iv", "value": 21, "unit": "ng/mL"}, {"measurement": "concentration at 2.5 h", "setting": "[3]; iv", "value": 17.6, "unit": "ng/mL"}, {"measurement": "concentration at 3 h", "setting": "[3]; iv", "value": 13.5, "unit": "ng/mL"}, {"measurement": "concentration at 4 h", "setting": "[3]; iv", "value": 9.4, "unit": "ng/mL"}, {"measurement": "concentration at 5 h", "setting": "[3]; iv", "value": 7, "unit": "ng/mL"}, {"measurement": "concentration at 6 h", "setting": "[3]; iv", "value": 4, "unit": "ng/mL"}, {"measurement": "concentration at 9 h", "setting": "[3]; iv", "value": 1.5, "unit": "ng/mL"}, {"measurement": "concentration at 0.5 h", "setting": "[3]; po", "value": 35.1, "unit": "ng/mL"}, {"measurement": "concentration at 0.75 h", "setting": "[3]; po", "value": 40.2, "unit": "ng/mL"}, {"measurement": "concentration at 1 h", "setting": "[3]; po", "value": 39.1, "unit": "ng/mL"}, {"measurement": "concentration at 1.5 h", "setting": "[3]; po", "value": 30.8, "unit": "ng/mL"}, {"measurement": "concentration at 2 h", "setting": "[3]; po", "value": 24, "unit": "ng/mL"}, {"measurement": "concentration at 3 h", "setting": "[3]; po", "value": 14.8, "unit": "ng/mL"}, {"measurement": "concentration at 4 h", "setting": "[3]; po", "value": 8.7, "unit": "ng/mL"}, {"measurement": "concentration at 5 h", "setting": "[3]; po", "value": 5.6, "unit": "ng/mL"}, {"measurement": "concentration at 6 h", "setting": "[3]; po", "value": 3.5, "unit": "ng/mL"}, {"measurement": "concentration at 9 h", "setting": "[3]; po", "value": 1.8, "unit": "ng/mL"}]}]}
